Data on 2 molecules can be found in patent publication US3997517A, “Cyclic somatostatin disulfide analogues” (American Home Products Corporation, priority 1976, dated 1976).

Holding throughout (type): in vivo
Experiment [1] concerns blood serum growth hormone. Description: Blood serum growth hormone in Nembutal-treated rats, radioimmunoassay. Conditions: Nembutal 50 mg/kg i.p., blood sampled 15 min later, control 291±47, *p < 0.01. On the procedure:
(§1) The in vivo activity of the cyclic somatostatin disulfide analogues of this invention was established with cyclic somatostatin disulfide as a representative member of the family of compounds by comparing the blood serum growth hormone, glucagon and insulin concentrations found in rats grouped for control, somatostatin and cyclic somatostatin disulfide comparison. The rats, weighing between 200 and 250 grams were treated with Nembutal, 50 milligrams per kilogram intraperitoneally. After five minutes the somatostatin, control and cyclic somatostatin disulfide administrations were made subcutaneously. The rats blood was sampled fifteen minutes later and the growth hormone, glucagon and insulin levels were determined by radioimmunoassay.

The next experiment has as its system blood serum glucagon. Description: Blood serum glucagon in Nembutal-treated rats, radioimmunoassay. Conditions: Nembutal 50 mg/kg i.p., blood sampled 15 min later. How it is done: as §1
The subject of another experiment is blood serum insulin. Description: Blood serum insulin in Nembutal-treated rats, radioimmunoassay. Conditions: Nembutal 50 mg/kg i.p., blood sampled 15 min later. How it is done: as §1

As to `C[C@@H]1NC(=O)[C@@H]2CSSC[C@H](NC(=O)CNC1=O)C(=O)N[C@@H](CCCCN)C(=O)N[C@@H](CC(N)=O)C(=O)N[C@@H](Cc1ccccc1)C(=O)N[C@@H](Cc1ccccc1)C(=O)N[C@@H](Cc1c[nH]c3ccccc13)C(=O)N[C@@H](CCCCN)C(=O)N[C@@H]([C@@H](C)O)C(=O)N[C@@H](Cc1ccccc1)C(=O)N[C@@H]([C@@H](C)O)C(=O)N[C@@H](CO)C(=O)N2` [Example IV, Cyclo-L-cysteinyl-L-alanyl-glycyl-L-cysteinyl-L-lysyl-L-asparaginyl-L-phenyl-alanyl-L-phenylalanyl-L-tryptophyl-L-lysyl-L-threonyl-L-phenylalanyl-L-threonyl-L-serine (1-4 disulfide)], in experiment [1] (dose 3000 μg/kg subcutaneously), the GH was found to be 40 ± 4 ng/mL. The molecule further displayed a Glucagon in the experiment with blood serum glucagon (dose 3000 μg/kg subcutaneously, control 33±2) of 29.7 ± 4 pg/mL. In the experiment with blood serum insulin (dose 3000 μg/kg subcutaneously, control 272±39), this molecule displayed an Insulin of 308 ± 30 µU/mL.

As to `C[C@H](N)C(=O)NCC(=O)N[C@H]1CSSC[C@@H](C(=O)O)NC(=O)[C@H](CO)NC(=O)[C@H]([C@@H](C)O)NC(=O)[C@H](Cc2ccccc2)NC(=O)[C@H]([C@@H](C)O)NC(=O)[C@H](CCCCN)NC(=O)[C@H](Cc2c[nH]c3ccccc23)NC(=O)[C@H](Cc2ccccc2)NC(=O)[C@H](Cc2ccccc2)NC(=O)[C@H](CC(N)=O)NC(=O)[C@H](CCCCN)NC1=O` [Somatostatin, somatostatin], the GH in experiment [1] (dose 200 μg/kg subcutaneously) came out at 40 ± 4 ng/mL. The molecule also had a Glucagon in the experiment on blood serum glucagon (dose 200 μg/kg subcutaneously, control 33±2, *p < 0.01) of 17 ± 2 pg/mL. The molecule further returned an Insulin with blood serum insulin (dose 200 μg/kg subcutaneously, control 272±39, +p < 0.05) of 161 ± 21 µU/mL.
